Results from US9873702B2, “Heterocyclic compounds as biogenic amine transport modulators” (Southern Research Institute, priority 2014, dated 2018).

Experiments:
[1] = molecular target: dopamine transporter (DAT) (Rattus norvegicus, UniProt P23977); experiment: Dopamine reuptake ([^3H]dopamine uptake) inhibition in rat brain synaptosomes; details: for IC50: DA Uptake EC50 (nM ± SD), rat caudate synaptosomes, 5 nM [^3H]dopamine, 15 min, 25° C., three experiments pooled; for Emax: read-out: DA Uptake Emax (% I ± SD)
dopamine transporter (DAT), sequence (P23977 whole entry): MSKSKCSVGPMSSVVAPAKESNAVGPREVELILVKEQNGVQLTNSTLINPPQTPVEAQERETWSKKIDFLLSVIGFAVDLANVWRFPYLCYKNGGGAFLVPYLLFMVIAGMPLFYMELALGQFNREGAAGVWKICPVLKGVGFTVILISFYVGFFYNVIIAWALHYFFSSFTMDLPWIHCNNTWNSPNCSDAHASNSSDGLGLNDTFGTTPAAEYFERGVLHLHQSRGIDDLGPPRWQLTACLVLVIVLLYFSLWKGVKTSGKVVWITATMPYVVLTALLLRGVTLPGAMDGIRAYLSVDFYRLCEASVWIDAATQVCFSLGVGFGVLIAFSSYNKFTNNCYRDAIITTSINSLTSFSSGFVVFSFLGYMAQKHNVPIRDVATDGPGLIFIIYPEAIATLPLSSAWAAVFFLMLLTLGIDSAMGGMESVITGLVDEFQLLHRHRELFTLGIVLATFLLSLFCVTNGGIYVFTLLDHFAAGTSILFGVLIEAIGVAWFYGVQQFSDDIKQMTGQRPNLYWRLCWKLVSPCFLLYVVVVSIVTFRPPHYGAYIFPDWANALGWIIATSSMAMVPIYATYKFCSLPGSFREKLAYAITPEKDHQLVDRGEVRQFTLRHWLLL

Structure (SMILES) | melting point | IC50 [1] | Emax [1]
c1ccc(C(CNc2nc(-c3ccc4ncccc4c3)nc3ccccc23)c2ccccc2)cc1 [compound 50, N-(2,2-Diphenylethyl)-2-(Quinolin-6-yl)Quinazolin-4-Amine] | 92 °C | 26 ± 7 nM | 68 ± 3%
c1ccc(C(CNc2nc(-c3ccc4cn[nH]c4c3)nc3ccccc23)c2ccccc2)cc1 [compound 34, N-(2,2-Diphenylethyl)-2-(1H-Indazol-6-yl)Quinazolin-4-Amine] | 223 °C | 123 ± 20 nM | 68 ± 2%
Cc1cc2nccn2cc1-c1nc(NCC(CN(C)C)c2ccccc2)c2ccccc2n1 (stereo not drawn) [compound 192, N1,N1-Dimethyl-N3-(2-(7-Methylimidazo[1,2-A]Pyridin-6-yl)Quinazolin-4-yl)-2-Phenylpropane-1,3-Diamine] | 250 to 252 °C | 10 ± 3 nM | 77 ± 4%
COc1ccc2nc(-c3cccnc3)nc(NCC(c3ccccc3)c3ccccc3)c2c1 [compound 59, N-(2,2-Diphenylethyl)-6-Methoxy-2-(Pyridin-3-yl)Quinazolin-4-Amine] | 77 °C | 529 ± 146 nM | 56 ± 3%
COc1cc2nc(-c3ccc4[nH]ccc4c3)nc(NCC(c3ccccc3)c3ccccc3)c2cc1OC [compound 24, N-(2,2-Diphenylethyl)-2-(1H-indol-5-yl)-6,7-Dimethoxyquinazolin-4-Amine] | 117 °C | 46 nM | 100%
COc1cc2nc(-c3cccs3)nc(NCC(c3ccccc3)c3ccccc3)c2cc1OC [compound 26, N-(2,2-Diphenylethyl)-6,7-Dimethoxy-2-(Thiophen-2-yl)Quinazolin-4-Amine] | 94 °C | 560 nM | 100%
c1ccc(C(CNc2nc(-c3ccc4cc[nH]c4c3)nc3ccccc23)c2ccccc2)cc1 [compound 31, N-(2,2-Diphenylethyl)-2-(1H-indol-6-yl)Quinazolin-4-Amine] | 102 °C | 89 ± 23 nM | 81 ± 4%
c1ccc(C(Nc2nc(-c3ccsc3)nc3ccccc23)c2ccccc2)cc1 [compound 11, N-Benzhydryl-2-(thiophen-3-yl)quinazolin-4-amine] | 152 to 155 °C | 770 nM | 100%
Cn1cc2c(-c3nc(NCC(c4ccccc4)c4ccccc4)c4ccccc4n3)cccc2n1 [compound 68, N-(2,2-Diphenylethyl)-2-(2-Methyl-2H-Indazol-4-yl)Quinazolin-4-Amine] | 121 °C | 195 ± 70 nM | 55 ± 4%

Further lines, results first:

melting point | IC50 [1] | Emax [1] | Structure (SMILES)
232 °C | 25 ± 3 nM | 72 ± 2% | Cc1nc2ccc(-c3nc(NCC(c4ccccc4)c4ccccc4)c4ccccc4n3)cn2c1C [compound 91, 2-(2,3-Dimethylimidazo[1,2-A]Pyridin-6-yl)-N-(2,2-Diphenylethyl)Quinazolin-4-Amine]
224 to 228 °C | 912 ± 195 nM | 77 ± 4% | Cc1cc2nccn2cc1-c1nc(NCCc2ccccn2)c2ccccc2n1 [compound 183, (7-Methylimidazo[1,2-A]Pyridin-6-yl)-N-(2-(Pyridin-2-yl)Ethyl)Quinazolin-4-Amine]
> 250 °C | 103 ± 26 nM | 55 ± 3% | c1ccc(C(CNc2nc(-c3ccc4ncnn4c3)nc3ccccc23)c2cccnc2)cc1 (stereo not drawn) [compound 132, 2-([1,2,4]Triazolo[1,5-a]pyridin-6-yl)-N-(2-phenyl-2-(pyridin-3-yl)ethyl)quinazolin-4-amine]
170 to 175 °C | 15 ± 3 nM | 74 ± 2% | Cc1cc2nccn2cc1-c1nc(NCC(c2ccncc2)c2ccncc2)c2ccccc2n1 [compound 157, N-(2,2-Di(Pyridin-4-yl)Ethyl)-2-(7-Methylimidazo[1,2-A]Pyridin-6-yl)Quinazolin-4-Amine]
